Results: paper PMC7849180 (Frontiers in Pharmacology, 2020)

Assays:
[1] = test system: myeloproliferative neoplasm; assay: JAK2V617F transgenic mouse model; type: in vivo, JAK2V617F transgenic mice; conditions: 100 mg/kg daily oral gavage, 4 weeks
Description: Suzhou Zelgen Biopharmaceuticals Co., Ltd. Jaktinib Hydrochloride Tablets Chemical Drug Class 1 New Drug […]
cells at a concentration of 1 μM. […]
effectively affect the primary cells harboring the JAK2V617F mutation in patients with […]
In Vivo Pharmacodynamic Study of ZG0128 in Mouse Model of Myeloproliferative Neoplasm
Primary myelofibrosis (PMF) is characterized by the formation of bone marrow fibrous tissues (scar-like) caused by the abnormal proliferation of three types of cells (platelets, white blood cells, and red blood cells). At present, there is still no particularly effective treatment for these diseases. JAKV617F transgenic mice and JAK2V617F bone marrow transplanted mice can develop the pathological characteristics of myeloproliferative neoplasm, which can be used to effectively evaluate the efficacy of drugs used in the treatment of myeloproliferative neoplasms.
HCD-57-JAK2V617F cells were intravenously injected into NSG mice. Three weeks later, the mice were injected intraperitoneally with a single dose of 200 mg/kg of compound ZG0128, and euthanized 4 h after drug administration. The results of […]
The ability of compound ZG0128 and its positive control drug ZG0192 to inhibit the pathological characteristics of myeloproliferative tumors (MPNs) was evaluated in a JAK2V617F bone marrow transplanted mouse model. […]

[2] = parameters: species or system Wistar rats; conditions: rat, in vivo, po
From the text: Suzhou Zelgen Biopharmaceuticals Co., Ltd. Jaktinib Hydrochloride Tablets Chemical Drug Class 1 New Drug chromosomal structural aberrations in CHL cells. Therefore, the results of the chromosomal aberration test were negative.
Mouse Bone Marrow Micronucleus Test
A mouse bone marrow micronucleus test of ZG0128 has been performed. After multiple doses of ZG0128 are given to mice via oral gavage, the incidence of micronucleated polychromatic erythrocytes in the bone marrow is observed to estimate the damage to chromosomal integrity in bone marrow cells and subsequent abnormality of chromosome segregation, so as to determine the presence of genotoxicity. The results […]
were observed every day. […] The body weight of female rats was measured twice a week before pregnancy and on days 0, 2, 4, 6, 9, 12, and 15 of gestation after successful mating. The food intake of male and female rats was measured once a week before mating. After successful mating, the food intake of female rats was measured on days 0, 6, and 12 of gestation. […] In addition, the weights of testes, epididymides, prostate, and seminal vesicles were measured to calculate the organ coefficients. […] In addition, the weights of the pregnant uterus, placenta and uterus, placenta, ovaries, brain, and the total weight of live fetuses were measured. […]

Cl.Cl.O.[2H]C1([2H])COCC([2H])([2H])N1c1ccc(Nc2nccc(-c3ccc(C(=O)NCC#N)cc3)n2)cc1 [ZG0128, Jaktinib Dihydrochloride Monohydrate]
counts of three types of blood cells and spleen volume [1]: significant decrease | NOAEL for reproductive functions and embryonic development [2]: 18 mg/kg
